Laboratory results from article PMC6523311, “Synthesis and Biological Evaluation of RGD–Cryptophycin Conjugates for Targeted Drug Delivery” (Pharmaceutics, 2019).

Assays:
[1] = system: M21-L human melanoma cells (αv-, αvβ3-); experiment: MTT in vitro cytotoxicity assay, M21-L; type: cell-based; conditions: 2 h treatment and additional 70 h incubation
Protocol: (§1) The human melanoma M21 and M21-L cells were kindly provided by Dr. David Cheresh and The Scripps Research Institute (La Jolla, CA, USA). Cells were cultured in RPMI 1640 supplemented with 10% fetal bovine serum (FBS), 1% L-glutamine and 1% Penicillin/Streptomycin in a humidified incubator at 37 °C and 5% CO2.
(§2) Cell viability was quantified by 3-(4,5-dimethylthiazol-2-yl)-2,5-diphenyltetrazolium bromide (MTT) assay. Cells were plated at a density of 3000 cells/well (Nunc® MicroWell® flat-bottom 96-well plate, Thermo Fisher Scientific) and incubated overnight to allow adherence. The following day, cells were treated with serial dilutions of each compound or 0.1% DMSO as control. After 2 h of incubation, cells were centrifuged at 1200 rpm for 5 min; supernatant containing the compounds was removed and replaced with fresh medium. Cells were further incubated for 70 h as described above, and at the end of treatment, 5 µL of MTT (5 mg/mL in deionized H2O, #M5655, Sigma Aldrich) were added to each well and the cells incubated for another 2 h. Finally, 100 µL of lysis buffer (10% SDS, 10 mM HCl) were added, and cells were placed in the incubator overnight for the formazan crystal solubilization. Absorbance at 540 nm was measured using FLUOstar Omega (BMG Labtech, Ortenberg, Germany) instrument and the growth inhibition ratio was calculated. Blank controls detecting cell-free media absorbance were performed in parallel. Three experimental replicates were used. The half-maximal inhibitory concentration values (IC50) were obtained from viability curves by fitting data to the four-parameter logistic equation using GraphPad Prism 6 (GraphPad Software, San Diego, CA, USA). The cell viability was expressed as percentage relative to the respective control conditions.

[2] = plasma metabolic stability assay, mouse plasma; type: in vitro ADME; conditions: 24 h
Protocol: (§3) The sample preparation and the metabolic analysis of the conjugates was carried out similarly to a previously described method. In a 96-well plate, the stock solutions (3 mM in dimethyl sulfoxide (DMSO)) of the conjugates and the control compound were diluted with 250 μL of plasma (pooled heparinized mouse ICR/CD1 M plasma #08 or human plasma #MPLLIHP-M, #BHR1003077, BioreclamationIVT, Westbury, NY, USA) to give a 3-µM concentration and incubated at 37 °C. At each sampling time an aliquot of 30 µL was transferred into a 96-deep-well plate and the reaction was stopped with 120 µL of acetonitrile (ACN) containing 0.1% HCOOH and 400 ng/mL of warfarin as internal standard (IS). This mixture was centrifuged at 1100× g for 30 min at 4 °C and 50 µL of supernatants were transferred into a clean 96-deep-well plate and diluted with 50 µL of 0.1% HCOOH in water. Samples were stored at −80 °C prior to UPLC-HRMS analysis (see Supplementary Materials). The stability was determined based on the disappearance of the test compound as a function of incubation time, using area ratios (analyte peak area vs internal standard peak area). The elimination constant k was calculated by plotting mean disappearance values on a semi-logarithmic scale and fitting with a best fit linear regression using Microsoft Excel. The half-life (t1/2) expressed in hours was determined using equation: t1/2 = ln2/(−k). […]

[3] = system: M21 human melanoma cells (αvβ3+); experiment: MTT in vitro cytotoxicity assay, M21; type: cell-based; conditions: for IC50: Homo sapiens, MTT, 2 h treatment and additional 70 h incubation
Protocol: as §1, §2

[4] = plasma metabolic stability assay, human plasma; type: in vitro ADME; conditions: 24 h
Protocol: as §3

human αvβ3 integrin = target: T1, human αvβ3 integrin (Homo sapiens, UniProt P05106+P06756, DEL719-788); experiment: competitive ELISA-like integrin binding assay (immobilized vitronectin, soluble integrin); conditions: competition with immobilized vitronectin
T1 construct: purchased R&D Systems 3050-AV-050

[5] = target: T2, bovine spleen cathepsin B (Bos taurus, UniProt P07688); experiment: cathepsin B cleavage assay; type: in vitro ADME; conditions: cathepsin B 1 U/mL, 37 °C, pH 5.5, 5 µM substrate
T2 construct: cathepsin B (bovine spleen cathepsin B, #C6286, Sigma Aldrich); purchased Sigma Aldrich C6286; host or cells: bovine spleen
Protocol: L-cysteine (#C8152, Sigma Aldrich) was dissolved in acetate buffer/ethylenediaminetetraacetic acid (EDTA) 1 mM pH 5.5 to get a solution with a final concentration of L-cysteine of 28 mM. This solution was used to dilute an aliquot of cathepsin B (bovine spleen cathepsin B, #C6286, Sigma Aldrich) to 1.11 U/mL. Sample containing cathepsin B was pre-incubated at 37 °C for 15 min and then split into 45-µL aliquots in Eppendorf tubes, two replicates for each incubation time. Aliquots of 5 µL of 50 µM solutions of the substrates prepared in MeOH/H2O (50/50) were added to each tube, to get a final concentration of 5 µM. Tubes corresponding to t = 0 min contained 100 µL of 1% HCOOH in MeOH and were put in an ice bath to stop the reaction. All the other tubes were incubated at 37 °C in an oscillating thermostatic bath and reaction was stopped at the following incubation times: 0.25, 0.5, 1, 2, 4, and 6 h, as described for t = 0 min samples. Samples were centrifuged for 10 min at 14,000 rpm at 4 °C and filtered with regenerated cellulose syringe filters prior to injection in the HPLC-MS system (see Supplementary Materials). […] Substrates and possible metabolites were quantified based on calibration curves prepared in acetate buffer/EDTA/L-cysteine.

SMILES: COc1ccc(C[C@H]2NC(=O)/C=C/C[C@@H]([C@H](C)[C@H]3O[C@@H]3c3ccccc3)OC(=O)[C@H](CC(C)C)OC(=O)C(C)(C)CNC2=O)cc1Cl [compound 2, cryptophycin-52, reference compound]
- IC50 [1]: 0.02 nM
- stability in mouse plasma [2]: significant metabolism
- IC50 [3]: 0.07 nM
- fold higher biological activity than cryptophycin-55 glycinate ([3]; M21 and M21-L cells, same test conditions): 10-20 fold

SMILES: COc1ccc(C[C@H]2NC(=O)/C=C/C[C@@H]([C@H](C)[C@@H](OC(=O)CN)[C@@H](Cl)c3ccccc3)OC(=O)[C@H](CC(C)C)OC(=O)C(C)(C)CNC2=O)cc1Cl [compound 4, Cryptophycin-55 glycinate]
- IC50 [1]: 0.14 ± 0.08 nM
- stability in mouse plasma [2]: markedly improved stability compared to the parent compound
- stability in human plasma [4]: good stability
- IC50 [3]: 0.75 ± 0.11 nM

SMILES: [N-]=[N+]=NCCC(=O)NCCCC[C@@H]1NC(=O)[C@@H](Cc2ccccc2)NC(=O)[C@H](CC(=O)O)NC(=O)CNC(=O)[C@H](CCCNC(=N)N)NC1=O [compound 9]
- IC50 (human αvβ3 integrin): 0.71 nM

SMILES: COc1ccc(C[C@H]2NC(=O)/C=C/C[C@@H]([C@H](C)[C@@H](OC(=O)CNC(=O)[C@@H]3CCCN3C(=O)CN)[C@@H](Cl)c3ccccc3)OC(=O)[C@H](CC(C)C)OC(=O)C(C)(C)CNC2=O)cc1Cl [compound 12, Gly-Pro-Cry-55gly]
- IC50 [1]: 0.039 ± 0.01 nM
- cleavage and metabolism upon incubation with cathepsin B [5]: not further metabolized to cryptophycin-55 glycinate
- IC50 [3]: 0.15 ± 0.03 nM
